Experimental findings from patent US7087622B2, “Pyridone compounds as inhibitors of bacterial type III protein secreation systems” (priority 2004, dated 2006) are described below.

By IC50 is commonly meant the concentration at which inhibition is half-maximal.

Common to all, as to type: cell-based
The test system of assay [1] is SPI1 type III protein secretion system (SipB secretion). Kind of assay: Secondary assay: Type III-dependent protein secretion of the SipB polypeptide by S. enterica (immunoblot). The following applies: Salmonella enterica, read-out: SipB IC50(uM). The procedure:
Secondary assay: Type III-dependent protein secretion of the SipB polypeptide by S. enterica. The SipB protein of S. enterica is another effector of the SPI1 type III protein secretion system from S. enterica. In this cell-based procedure, the Type III-dependent secretion of SipB from the bacterial cytoplasm to the extracellular medium was measured through its reactivity with a cognate mouse monoclonal.
Salmonella enterica cells growing either in the presence or in the absence of inhibitors are induced for the production of SipB. Following an established period of growth the cells are sedimented and the amount of SipB present in the supernatant is quantified with a scanning imager following application of immunoblot techniques. Detection may employ an anti-SipB mouse monoclonal antibody (e.g., obtained from Jorge Galan, SUNY at Stony Brook, N.Y.) followed by treatment with commercially available sheep anti-mouse polyclonal antibody conjugated with horseradish peroxidase. Thereafter the membrane is treated with a peroxidase chemiluminescent substrate and exposed to film for an appropriate exposure time. Inhibition may be measured relative to untreated controls.
Background: In western blotting, separated proteins are transferred to a membrane and probed.

Assay [2] has as its system type III protein secretion system of P. aeruginosa PA103 (ExoU secretion). Kind of assay: Tertiary assay: Type III-dependent secretion of ExoU by P. aeruginosa PA103 (SDS-PAGE band quantitation). The following applies: Pseudomonas aeruginosa, ExoU secreted into extracellular medium. An excerpt: Tertiary assay: inhibition of Type III protein secretion of effectors from a Pseudomonas aeruginosa system. Type III protein secretion is used by P. aeruginosa to secrete several essential virulence determinants. One effector of the type III protein secretion system of P. aeruginosa PA103 is the virulence determinants ExoU.
The amount of Type III-dependent secretion of ExoU by P. aeruginosa PA103 can be determined in a cell-based assay by quantification of the 73.9 kDa ExoU protein secreted into the extracellular medium. Such quantitation can be achieved by growing strain PA103 in a deferrated medium in the presence of nitrilotriacetic acid (an inducer of Type III protein secretion in P. aeruginosa) and either in the presence or absence of putative inhibitors. After a prolonged growth period, the cells are sedimented and the supernatants concentrated by ammonium sulfate precipitation. The proteins in the resuspended pellets are separated by electrophoresis on SDS-polyacrylamide gels. After staining gels with Colloidal Blue™, the 73.9 kDa ExoU band is quantitated by scanning through an imager. The effects of inhibitors on the intensity of the ExoU band may be measured relative to that of untreated controls.

Assay [3] relates to SPI1 type III protein secretion system (SopE-Bla secretion). Kind of assay: Primary assay: Type III protein secretion of the chimeric SopE-Bla polypeptide by Salmonella enterica (nitrocefin hydrolysis). The following applies: read-out: SopE IC50(uM). An excerpt: Primary assay: Type III protein secretion of the chimeric SopÉ-Bla polypeptide by Salmonella enterica. This procedure is a cell-based assay that measures the type III-dependent secretion by Salmonella enterica of a plasmid-encoded chimeric polypeptide whose synthesis can be regulated, and which is endowed with an enzymatic activity that can be monitored calorimetrically by hydrolysis of a substrate that is unable to penetrate into the bacterial cytoplasm within the time constraints of the reaction. Thus, the colorimetric reaction is not influenced by SopÉ-Bla polypeptide in the bacterial cytoplasm. Instead, it effectively measures the amount of polypeptide that has been secreted from the S. enterica cytoplasm to the extracellular medium via type III system protein secretion.
The SopÉ-Bla recombinant polypeptide consists of two functionally distinct domains spliced together. The N-terminus domain is encoded by a polynucleotide region specifying the signal for type III secretion of the SopE polypeptide of S. enterica, an effector of the SPI1 type III protein secretion system. The C-terminus domain of SopÉ-Bla consists of a 263 amino acid peptide sequence that corresponds to the TEM-1 β-lactamase expressed by plasmid pBR322 but without its N-terminal signal sequence. The TEM-1 β-lactamase part of the SopÉ-Bla chimeric polypeptide is used as a reporter enzyme. It is capable of hydrolyzing nitrocefin resulting in a product whose accumulation can be monitored by colorimetric detection. The secretion of the SopÉ-Bla chimeric polypeptide from the cytoplasm to the extracellular medium is dependent on type III protein secretion.
For this procedure, cells grown under conditions known to favor a functional SPI1 secretion system are induced for expression of the SopÉ-Bla protein and grown either in the presence or in the absence of putative inhibitors for determined time. Nitrocefin is then added to the various cultures and its hydrolysis are used for quantitation. An inhibitor of Type III protein secretion is generally a compound that reduces the signal of the enzymatic reaction by decreasing the amount of SopÉ-Bla secreted into the extracellular medium.

As to `O=C(Nc1cc(-c2ccc(-c3ccccc3)cc2)cn(C(CSCc2ccccc2)C(=O)O)c1=O)c1ccc(C(F)(F)F)cc1` (stereo in doubt) [Compound 14, (R)-3-Benzylsulfanyl-2-[5-biphenyl-4-yl-2-oxo-3-(4-trifluoromethylbenzoylamino)-2H-pyridi-1-yl]propionic acid], the IC50 in assay [1] was determined as 7.1 µM; in assay [2] it was 31.6 µM; in assay [3], 31.3 µM.
Turning to `O=C(Nc1cc(-c2ccc(Oc3ccccc3)cc2)cn(C(CSCc2ccccc2)C(=O)O)c1=O)c1ccc(C(F)(F)F)cc1` (stereo in doubt) [Compound 15, (R)-3-Benzylsulfanyl-2-[2-oxo-5-(4-phenoxyphenyl)-3-(4-trifluoromethyl-benzoylamino)-2H-pyridin-1-yl]propionic acid], the values for the 50% inhibitory concentration (IC50) in assay [1], in assay [2] and in assay [3] were 67.9 µM, 83.4 µM and 9.1 µM, respectively.
Take `O=C(Nc1cc(-c2cccc3ccccc23)cn([C@@H](Cc2ccccc2)C(=O)O)c1=O)c1ccc(C(F)(F)F)cc1` [Compound 1, (S)-2-[5-Naphthalen-1-yl-2-oxo-3-(4-trifluoromethylbenzoylamino)-2H-pyridin-1-yl]-3-phenylpropionic acid]: the IC50 amounted to 82.8 µM in assay [1], 82.8 µM in assay [2] and 14.4 µM in assay [3].
In the case of `O=C(Nc1cc(-c2ccc(Oc3ccccc3)cc2)cn([C@@H](Cc2ccccc2)C(=O)O)c1=O)c1ccc(C(F)(F)F)cc1` [Compound 4, (S)-2-[2-Oxo-5-(4-phenoxyphenyl)-3-(4-trifluoromethylbenzoylamino)-2H-pyridin-1-yl]-3-phenylpropionic acid], the IC50 in assay [1] came to 84.7 µM; in assay [2] it was 84.7 µM; in assay [3] it was 6.3 µM.
On to `O=Cc1ccc(-c2cc(NC(=O)c3ccc(C(F)(F)F)cc3)c(=O)n([C@@H](Cc3ccccc3)C(=O)O)c2)cc1` [Compound 5, (S)-2-[5-(4-Formylphenyl)-2-oxo-3-(4-trifluoromethylbenzoylamino)-2H-pyridin-1-yl]-3-phenylpropionic acid], for which the IC50 was above 100 µM in assay [1], above 100 µM in assay [2] and 49.9 µM in assay [3].
For `COC(=O)c1ccc(-c2cc(NC(=O)c3ccc(C(F)(F)F)cc3)c(=O)n([C@@H](Cc3ccccc3)C(=O)O)c2)cc1` [Compound 6, (S)-4-[1-(1-Carboxy-2-phenethyl)-6-oxo-5-(4-trifluoromethylbenzoylamino)-1,6-dihydro-pyridin-3-yl]benzoic acid methyl ester], the IC50 was above 100 µM in assay [1], above 100 µM in assay [2] and 53.6 µM in assay [3].
Take `O=C(Nc1cc(-c2cccc3ccccc23)cn([C@@H](COCc2ccccc2)C(=O)O)c1=O)c1ccc(C(F)(F)F)cc1` [Compound 8, (S)-3-Benzyloxy-2-[5-naphthalen-1-yl-2-oxo-3-(4-trifluoromethylbenzoylamino)-2H-pyridin-1-yl]propionic acid]: the figures for the 50% inhibitory concentration (IC50) in assay [1], in assay [2] and in assay [3] were 49.2 µM, above 100 µM and 29.5 µM, respectively.
Regarding `O=C(Nc1cc(-c2ccc(Oc3ccccc3)cc2)cn([C@@H](COCc2ccccc2)C(=O)O)c1=O)c1ccc(C(F)(F)F)cc1` [Compound 9, (S)-3-Benzyloxy-2-[2-oxo-5-(4-phenoxyphenyl)-3-(4-trifluoromethyl-benzoylamino)-2H-pyridin-1-yl]propionic acid], the half-inhibitory concentration (IC50) was 26.2 µM in assay [1], above 100 µM in assay [2] and 10.1 µM in assay [3].
For the compound `O=C(Nc1cc(-c2ccccc2Oc2ccccc2)cn([C@@H](COCc2ccccc2)C(=O)O)c1=O)c1ccc(C(F)(F)F)cc1` [Compound 10, (S)-3-Benzyloxy-2-[2-oxo-5-(2-phenoxyphenyl)-3-(4-trifluoromethyl-benzoylamino)-2H-pyridin-1-yl]propionic acid], the IC50 in assay [1] is 37.4 µM; in assay [2], above 100 µM; in assay [3] it was 27 µM.
For the compound `O=C(Nc1cc(-c2ccc(Cl)c(Cl)c2)cn(C(Cc2ccc(Cl)cc2)C(=O)O)c1=O)c1ccc(C(F)(F)F)cc1` (stereo not shown) [Compound 20, 3-(4-Chlorophenyl)-2-[5-(3,4-dichloro-phenyl)-2-oxo-3-(4-trifluoromethyl-benzoylamino)-2H-pyridin-1-yl]propionic acid], the IC50 in assay [1] was above 100 µM; in assay [2], above 100 µM; in assay [3] it was 2.7 µM.
As to `O=C(Nc1cc(-c2ccc(F)cc2F)cn(C(Cc2ccc(Cl)cc2)C(=O)O)c1=O)c1ccc(C(F)(F)F)cc1` (stereo not shown) [Compound 21, 3-(4-Chlorophenyl)-2-[5-(2,4-difluorophenyl)-2-oxo-3-(4-trifluoromethyl-benzoylamino)-2H-pyridin-1-yl]propionic acid], the values for the half-maximal inhibitory concentration (IC50) in assay [1], in assay [2] and in assay [3] were 79 µM, 61.2 µM and 13.5 µM, respectively.
The matching figures for `O=C(Nc1cc(-c2cccc(C(F)(F)F)c2)cn(C(Cc2ccc(Cl)cc2)C(=O)O)c1=O)c1ccc(-c2ccccc2)cc1` (stereo not shown) [Compound 22, 2-[3-[(Biphenyl-4-carbonyl)amino]-2-oxo-5-(3-trifluoromethylphenyl)-2H-pyridin-1-yl]-3-(4-chlorophenyl)propionic acid]: 38.3 µM, above 100 µM and 3.4 µM.
For `O=C(Nc1cc(-c2cccc3c2sc2ccccc23)cn(C(Cc2ccc(Cl)cc2)C(=O)O)c1=O)c1ccc(C(F)(F)F)cc1` (stereo not shown) [Compound 24, 3-(4-Chlorophenyl)-2-[5-dibenzothiophen-4-yl-2-oxo-3-(4-trifluoromethyl-benzoylamino)-2H-pyridin-1-yl]propionic acid], the 50% inhibitory concentration (IC50) amounted to 67.1 µM in assay [1], 62.4 µM in assay [2] and 1.6 µM in assay [3].
In the case of `O=C(Nc1cc(-c2cccc(O)c2)cn(C(Cc2ccc(Cl)cc2)C(=O)O)c1=O)c1ccc(C(F)(F)F)cc1` (stereo not shown) [Compound 30, 3-(4-Chlorophenyl)-2-[5-(3-hydroxyphenyl)-2-oxo-3-(4-trifluoromethyl-benzoylamino)-2H-pyridin-1-yl]propionic acid], the 50% inhibitory concentration (IC50) in assay [1] was 33.4 µM; in assay [2], above 100 µM; in assay [3], 19.3 µM.
Take `O=C(Nc1cc(-c2ccc(Cl)cc2)cn(C(Cc2ccc(Cl)cc2)C(=O)O)c1=O)c1ccc(-c2ccccc2)cc1` (stereo not shown) [Compound 33, 2-[3-[(Biphenyl-4-carbonyl)amino]-5-(4-chlorophenyl)-2-oxo-2H-pyridin-1-yl]-3(4-chlorophenyl)propionic acid]: the half-inhibitory concentration (IC50) in assay [1] was 39 µM; in assay [2] it was above 50 µM; in assay [3], 7.6 µM.
`O=C(Nc1cc(-c2ccc(Cl)cc2)cn(C(Cc2ccc(Cl)cc2)C(=O)O)c1=O)c1ccc(Oc2ccccc2)cc1` (stereo not shown) [Compound 52, 3-(4-Chlorophenyl)-2-[5-(4-chlorophenyl)-2-oxo-3-(4-phenoxybenzoylamino)-2H-pyridin 1-yl]propionic acid]: the IC50 in assay [1] is above 100 µM; in assay [3], 9 µM.
As for `O=C(Nc1cc(-c2ccc(C(F)(F)F)cc2)cn(C(Cc2ccc(Cl)cc2)C(=O)O)c1=O)c1ccc(Oc2ccccc2)cc1` (stereo not shown) [Compound 54, 3-(4-Chlorophenyl)-2-[2-oxo-3-(4-phenoxybenzoylamino)-5-(4-trifluoromethyl-phenyl)-2H-pyridin-1-yl]propionic acid], the IC50 is above 100 µM in assay [1] and 16.6 µM in assay [3].
